Consider one compound from patent US20140213576A1, “NOVEL COMPOUND USEFUL FOR THE TREATMENT OF DEGENERATIVE AND INFLAMMATORY DISEASES” (GALAPAGOS NV, priority 2013, published 2014).

pIC50, pKi: −log10 of the molar value.

One assay addresses T1, TYK2 (Homo sapiens, UniProt P29597).
T1 construct: purchased Carna Biosciences 09CBS-0983D
Kind of assay: TYK2 Ki determination assay (kinase tracer 236 binding). Particulars: binding experiment, 50 nM kinase tracer 236; read-out: Ki against TYK2. Here is the method:
TYK2 (Carna Biosciences, 09CBS-0983D) was used at a final concentration of 5 nM. The binding experiment was performed in 50 mM Hepes pH 7.5, 0.01% Brij-35, 10 mM MgCl2, 1 mM EGTA using 50 nM kinase tracer 236 (Invitrogen, PV5592) and 2 nM Eu-anti-GST (Invitrogen, PV5594) with varying compound concentrations. Detection of tracer was performed according to the manufacturers’ procedure.

Assay [1] deals with GM-CSF-induced STAT5 phosphorylation. Kind of assay: Whole blood assay, GM-CSF stimulation, phospho-STAT5 by FACS. It is filed as cell-based. To be noted: human whole blood, CD14+ cells, 8 different donors. The procedure:
In addition, a flow cytometry analysis was performed to establish JAK1 over JAK2 compound selectivity ex vivo using human whole blood. Therefore, blood was taken from human volunteers who gave informed consent. Blood was then equilibrated for 30 min at 37° C. under gentle rocking, then aliquoted in Eppendorf tubes. Compound was added at different concentrations and incubated at 37° C. for 30 min under gentle rocking and subsequently stimulated for 20 min at 37° C. under gentle rocking with interleukin 6 (IL-6) for JAK1-dependent pathway stimulation or GM-CSF for JAK2-dependent pathway stimulation. Phospho-STAT1 and phospho-STAT5 were then evaluated using FACS analysis.
For GM-CSF-stimulated increase of Signal Transducers and Activators of Transcription 5 (pSTAT5) phosphorylation in white blood cell, human whole blood, drawn from human volunteers who gave informed consent, is ex vivo treated with compound for 30 min and subsequently stimulated for 20 min with GM-CSF. The increase in phosphorylation of STAT5 by GM-CSF in monocytes is measured using an anti phospho-STAT5 antibody by FACS. […]
Cells are then washed once with 1×PBS and analyzed on a FACSCanto II flow cytometer (BD Biosciences).
50,000 total events are counted and Phospho-STAT5 positive cells are measured after gating on CD14+ cells. […]
(In general: Flow cytometry measures light scatter and fluorescence of single cells or particles in a stream.)

For the next assay, the system named is BA/F3 (ATCC CRL-12015). Kind of assay: BA/F3 viability assay. The format is cell-based, murine. To be noted: IL3-dependent viability, ATP-lite, individual determinations. An excerpt:
The protocol describes the methods to analyse the activity of compounds on the ability to sustain the IL3-dependent viability of BA/F3 (ATCC CRL-12015; Collins et al, 1992).

In general, pKi refers to −log10 of the Ki, conventionally taken in molar units. The term pIC50 denotes the IC50 on a negative log10 scale, so that one unit is a factor of ten. The low end stands for a high IC50, the high end for a low IC50.

T1 sequence (P29597 whole entry): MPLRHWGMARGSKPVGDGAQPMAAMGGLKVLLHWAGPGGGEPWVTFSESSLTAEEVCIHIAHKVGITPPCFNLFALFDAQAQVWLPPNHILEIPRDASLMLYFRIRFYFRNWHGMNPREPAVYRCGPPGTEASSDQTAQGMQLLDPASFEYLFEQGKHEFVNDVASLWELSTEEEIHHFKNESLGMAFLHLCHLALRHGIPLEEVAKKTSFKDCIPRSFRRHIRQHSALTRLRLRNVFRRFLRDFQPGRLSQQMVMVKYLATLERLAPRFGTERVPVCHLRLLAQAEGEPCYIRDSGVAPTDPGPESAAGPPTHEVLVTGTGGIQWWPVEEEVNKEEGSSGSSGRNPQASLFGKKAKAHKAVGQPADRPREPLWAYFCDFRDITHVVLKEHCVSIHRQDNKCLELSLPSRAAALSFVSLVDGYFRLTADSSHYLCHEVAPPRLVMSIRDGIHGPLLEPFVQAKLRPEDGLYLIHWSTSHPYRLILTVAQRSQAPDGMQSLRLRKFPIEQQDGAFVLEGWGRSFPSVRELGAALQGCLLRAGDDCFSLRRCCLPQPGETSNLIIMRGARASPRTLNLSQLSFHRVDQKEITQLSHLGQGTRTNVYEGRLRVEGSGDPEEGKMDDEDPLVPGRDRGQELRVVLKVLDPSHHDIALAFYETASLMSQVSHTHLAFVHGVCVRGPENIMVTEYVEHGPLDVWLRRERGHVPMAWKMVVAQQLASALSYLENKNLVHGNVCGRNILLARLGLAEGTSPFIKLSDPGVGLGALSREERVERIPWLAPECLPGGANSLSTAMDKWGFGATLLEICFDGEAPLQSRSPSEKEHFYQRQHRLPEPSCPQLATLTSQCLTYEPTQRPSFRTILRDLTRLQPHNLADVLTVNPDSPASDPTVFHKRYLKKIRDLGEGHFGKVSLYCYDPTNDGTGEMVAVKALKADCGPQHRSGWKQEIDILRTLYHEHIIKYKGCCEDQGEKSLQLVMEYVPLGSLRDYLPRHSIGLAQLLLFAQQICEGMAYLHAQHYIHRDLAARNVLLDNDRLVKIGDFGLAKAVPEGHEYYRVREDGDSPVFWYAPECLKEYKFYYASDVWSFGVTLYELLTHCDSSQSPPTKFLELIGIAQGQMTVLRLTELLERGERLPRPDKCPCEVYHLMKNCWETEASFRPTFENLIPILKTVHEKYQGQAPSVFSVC

With `CCc1cc(C2CN(S(C)(=O)=O)C2)ncc1N(C)c1cc2c(cn1)ncn2C` [Compound 1, [4-Ethyl-6-(1-methanesulfonyl-azetidin-3-yl)-pyridin-3-yl]-methyl-(1-methyl-1H-imidazo[4,5-d]pyridin-6-yl)-amine], the pKi on TYK2 is 6.47. Besides, the pIC50 is less than 4.65 in assay [1]; 5.10 in the assay on BA/F3 (ATCC CRL-12015) (48 h, listed as compound of the invention); less than 4.95 in the assay with BA/F3 (ATCC CRL-12015) (Mus musculus, BaF3, 48 h).
